Assay results taken from patent US20070128217A1 (priority 2003, published 2007).

What was measured:
[1] = test system: antibodies in sera from SARS patients (sera 1a, 1b, 2, 6, 37, 62, London, SARS-yellow, SARS-green); assay type: binding, human; parameters: Binding of serum 6 to linear peptides of protein X1 of SARS-CoV Urbani / Binding of serum 37 to linear peptides of protein X1 of SARS-CoV Urbani / Binding of serum 6 to looped/cyclic peptide (PEPSCAN-ELISA) / Binding of serum 37 to looped/cyclic peptide (PEPSCAN-ELISA) / Binding of serum 37 to looped/cyclic peptides of protein X1 of SARS-CoV Urbani / Binding of serum 6 to linear peptides of protein X2 / Binding of serum 37 to linear peptides of protein X2 / Binding of serum 37 to looped/cyclic peptides of protein X2 of SARS-CoV Urbani / Binding of serum 6 to linear peptides of protein M of SARS-CoV Urbani / Binding of serum 37 to linear peptides of protein M of SARS-CoV Urbani / Binding of serum 6 to looped/cyclic peptides of protein M of SARS-CoV Urbani / Binding of serum 37 to looped/cyclic peptides of protein M of SARS-CoV Urbani / Binding of serum 6 to linear peptides of protein X3 of SARS-CoV Urbani / Binding of serum 37 to linear peptides of protein X3 of SARS-CoV Urbani / Binding of serum 37 to looped/cyclic peptides of protein X3 of SARS-CoV Urbani / Binding of serum 6 to linear peptides of protein X4 of SARS-CoV Urbani / Binding of serum 37 to linear peptides of protein X4 of SARS-CoV Urbani / Binding of serum 37 to looped/cyclic peptides of protein X4 of SARS-CoV Urbani / Binding of serum 6 to linear peptides of protein X5 of SARS-CoV Urbani / Binding of serum 37 to linear peptides of protein X5 of SARS-CoV Urbani / Binding of serum 37 to looped/cyclic peptides of protein X5 of SARS-CoV Urbani / Binding of serum 6 to linear peptides of protein N of SARS-CoV Urbani / Binding of serum 37 to linear peptides of protein N of SARS-CoV Urbani / Binding of serum 6 to linear peptide (PEPSCAN-ELISA) / Binding of serum 1a to looped/cyclic peptides of protein N of SARS-CoV Urbani / Binding of serum 1b to looped/cyclic peptides of protein N of SARS-CoV Urbani / Binding of serum 2 to looped/cyclic peptides of protein N of SARS-CoV Urbani / Binding of serum 6 to looped/cyclic peptides of protein N of SARS-CoV Urbani / Binding of serum 37 to looped/cyclic peptides of protein N of SARS-CoV Urbani / Binding of serum 62 to looped/cyclic peptides of protein N of SARS-CoV Urbani / Binding of serum London to looped/cyclic peptides of protein N of SARS-CoV Urbani / Binding of serum SARS-green to looped/cyclic peptides of protein N of SARS-CoV Urbani: unit not given here
[2] = test system: control sera (pooled serum of ten healthy LUMC hospital workers; commercial negative donor pooled serum from the Dutch bloodbank); assay type: binding, human; parameters: Binding of Control serum LUMC to linear peptides / Binding of Control serum Blood-bank to linear peptides / Binding of Control serum LUMC to looped peptides / Binding of Control Serum Blood-Bank to Looped peptides / Binding of Control serum LUMC to linear peptides of the protein M of SARS-CoV Urbani / Binding of Control serum Blood-bank to linear peptides of the protein M of SARS-CoV Urbani / Binding of Control serum LUMC to looped peptides of the protein M of SARS-CoV Urbani / Binding of Control Serum Blood-Bank to Looped peptides of the protein M of SARS-CoV Urbani: unit not given here
[3] = test system: rabbit serum obtained by immunizing a rabbit with the SARS-CoV strain Frankfurt 1; assay type: binding; parameters: Binding of a rabbit serum to linear peptides / Binding of a rabbit serum to looped peptides / Rabbit serum linear peptides / Rabbit serum looped peptides / Binding of a rabbit serum to linear peptides of protein N of SARS-CoV Urbani (Rabbit serum linear peptides) / Binding of a rabbit serum to looped/cyclic peptides of protein N of SARS-CoV Urbani (Rabbit serum looped peptides): unit not given here
[4] = test system: recombinant human anti-SARS-CoV antibody 03-018; assay type: binding; parameters: Binding of antibody 03-018 to linear peptides of the N protein of SARS-CoV Urbani / Binding of antibody 03-018 to looped/cyclic peptides of the N protein of SARS-CoV Urbani: unit not given here

Sequence	Binding of serum 1a to linear peptides of protein N of SARS-CoV Urbani [1]	Binding of serum 1a to looped/cyclic peptides of protein N of SARS-CoV Urbani [1]	Binding of serum 1b to linear peptides of protein N of SARS-CoV Urbani [1]	Binding of serum 1b to looped/cyclic peptides of protein N of SARS-CoV Urbani [1]	Binding of serum 2 to linear peptides of protein N of SARS-CoV Urbani [1]	Binding of serum 2 to looped/cyclic peptides of protein N of SARS-CoV Urbani [1]	Binding of serum 6 to linear peptides of protein N of SARS-CoV Urbani [1]	Binding of serum 6 to looped/cyclic peptides of protein N of SARS-CoV Urbani [1]	Binding of serum 37 to linear peptides of protein N of SARS-CoV Urbani [1]	Binding of serum 37 to looped/cyclic peptides of protein N of SARS-CoV Urbani [1]	Binding of serum 62 to linear peptides of protein N of SARS-CoV Urbani [1]	Binding of serum 62 to looped/cyclic peptides of protein N of SARS-CoV Urbani [1]	Binding of serum London to linear peptides of protein N of SARS-CoV Urbani [1]	Binding of serum London to looped/cyclic peptides of protein N of SARS-CoV Urbani [1]	Binding of serum SARS-green to linear peptides of protein N of SARS-CoV Urbani [1]	Binding of serum SARS-green to looped/cyclic peptides of protein N of SARS-CoV Urbani [1]	Binding of serum SARS-yellow to linear peptides of protein N of SARS-CoV Urbani [1]	Binding of serum SARS-yellow to looped/cyclic peptides of protein N of SARS-CoV Urbani [1]	Binding of antibody 03-018 to linear peptides of the N protein of SARS-CoV Urbani [4]	Binding of antibody 03-018 to looped/cyclic peptides of the N protein of SARS-CoV Urbani [4]	further results
DAYKTFPPTEPKKDK	0.3	0.2	0.2	0.1	0.3	0.2	0.3	0.1	0.8	0.3	1.1	0.2	0.6	0.2	0.4	0.0	0.7	0.1	0.1	0.2	Control Serum Blood-Bank Looped peptides [2]: 0.2; Control serum Blood-bank linear peptides [2]: 0.8; Control serum LUMC linear peptides [2]: 0.6; Control serum LUMC looped peptides [2]: 0.2; Binding of a rabbit serum to linear peptides of protein N of SARS-CoV Urbani (Rabbit serum linear peptides) [3]: 0.1; Binding of a rabbit serum to looped/cyclic peptides of protein N of SARS-CoV Urbani (Rabbit serum looped peptides) [3]: 0.1
DDQIGYYRRATRRVR	0.3	0.4	0.1	0.2	0.3	0.5	0.3	0.4	0.7	0.9	0.9	0.7	0.7	0.5	0.6	0.4	0.6	0.5	0.1	0.3	Binding of Control Serum Blood-Bank to Looped peptides [2]: 0.8; Binding of Control serum Blood-bank to linear peptides [2]: 1.0; Binding of Control serum LUMC to linear peptides [2]: 1.0; Binding of Control serum LUMC to looped peptides [2]: 0.8; Recognition of the peptide by the rabbit serum [3]: recognized
DFSRQLQNSMSGASA	0.2	0.3	0.1	0.1	0.2	0.4	0.2	0.2	0.7	0.4	0.6	0.2	0.5	0.3	0.3	0.4	0.5	0.2	0.1	0.2	Control Serum Blood-Bank Looped peptides [2]: 0.5; Control serum Blood-bank linear peptides [2]: 0.6; Control serum LUMC linear peptides [2]: 0.6; Control serum LUMC looped peptides [2]: 0.4; Binding of a rabbit serum to linear peptides of protein N of SARS-CoV Urbani (Rabbit serum linear peptides) [3]: 0.5; Binding of a rabbit serum to looped/cyclic peptides of protein N of SARS-CoV Urbani (Rabbit serum looped peptides) [3]: 0.6
